The source of these data is the NIST ThermoML archive (doi:10.1016/j.fluid.2010.02.022).

Numbers after ± are expanded uncertainties.

For the data set the following is noted: 101 kPa, Liquid, Pendant drop method.

In the case of `CCCCn1cc[n+](C)c1.O=S(=O)([O-])C(F)(F)F` [1-butyl-3-methylimidazolium trifluoromethanesulfonate] + CCCCCCCC, the interfacial tension runs as follows: (293 K) 9.96 ± 0.12 mN/m; (298 K) 9.88 ± 0.12 mN/m; (303 K) 9.79 ± 0.12 mN/m; (308 K) 9.7 ± 0.12 mN/m; (313 K) 9.59 ± 0.12 mN/m.

As to `CCCC[n+]1ccn(C)c1.O=S(=O)([N-]S(=O)(=O)C(F)(F)F)C(F)(F)F` + CCCCCCCCCC, the interfacial tension (293 K) amounted to 9.43 ± 0.12 mN/m; the interfacial tension (298 K) is recorded as 9.33 ± 0.12 mN/m; the interfacial tension (303 K) is 9.21 ± 0.12 mN/m; the interfacial tension (308 K) stood at 9.1 ± 0.12 mN/m; the interfacial tension (313 K) was 8.99 ± 0.12 mN/m.

Take `CCCCCC[n+]1ccn(C)c1.O=S(=O)([N-]S(=O)(=O)C(F)(F)F)C(F)(F)F` + CCCCCCCC: the interfacial tension runs as follows: (293 K) 5.79 ± 0.11 mN/m; (298 K) 5.66 ± 0.11 mN/m; (303 K) 5.5 ± 0.11 mN/m; (308 K) 5.36 ± 0.11 mN/m; (313 K) 5.24 ± 0.11 mN/m.

Consider `CCCCn1cc[n+](C)c1.O=C([O-])C(F)(F)F` [1-butyl-3-methylimidazolium trifluoroacetate] + CCCCCC, for which the interfacial tension (293 K) was 8.74 ± 0.18 mN/m; the interfacial tension (298 K) was determined as 8.58 ± 0.18 mN/m; the interfacial tension (303 K) worked out at 8.43 ± 0.18 mN/m; the interfacial tension (308 K) came to 8.29 ± 0.18 mN/m; the interfacial tension (313 K) stood at 8.16 ± 0.17 mN/m.

As for `CCCCCCCCn1cc[n+](C)c1.O=S(=O)([N-]S(=O)(=O)C(F)(F)F)C(F)(F)F` + O, the interfacial tension by setting is: (293 K) 16.47 ± 0.14 mN/m; (298 K) 15.79 ± 0.13 mN/m; (303 K) 15.67 ± 0.13 mN/m; (308 K) 15.37 ± 0.13 mN/m; (313 K) 15.06 ± 0.13 mN/m; (318 K) 14.61 ± 0.13 mN/m. The interfacial tension (323 K) was determined as 14.44 ± 0.13 mN/m.

`CCCCn1cc[n+](C)c1.O=C([O-])C(F)(F)F` [1-butyl-3-methylimidazolium trifluoroacetate] + CCCCCCCCCC: the interfacial tension reads like this: (293 K) 10.52 ± 0.13 mN/m; (298 K) 10.41 ± 0.13 mN/m; (303 K) 10.29 ± 0.13 mN/m; (308 K) 10.16 ± 0.13 mN/m; (313 K) 10.04 ± 0.13 mN/m.

Take `CCCCCCCCn1cc[n+](C)c1.O=S(=O)([N-]S(=O)(=O)C(F)(F)F)C(F)(F)F` + CCCCCC: the interfacial tension amounted to 3.12 ± 0.11 mN/m (293 K); 3.07 ± 0.11 mN/m (298 K); 3.02 ± 0.11 mN/m (303 K); 2.95 ± 0.11 mN/m (308 K); 2.88 ± 0.11 mN/m (313 K).

Take `CCCCCCCCn1cc[n+](C)c1.O=S(=O)([N-]S(=O)(=O)C(F)(F)F)C(F)(F)F` + CCCCCCCCCC: the interfacial tension was determined as 3.98 ± 0.1 mN/m (293 K); 3.88 ± 0.1 mN/m (298 K); 3.76 ± 0.1 mN/m (303 K); 3.63 ± 0.1 mN/m (308 K); 3.51 ± 0.1 mN/m (313 K).

Regarding `CCn1cc[n+](C)c1.O=S(=O)([N-]S(=O)(=O)C(F)(F)F)C(F)(F)F` + CCCCCCCC, the interfacial tension runs as follows: (293 K) 12.23 ± 0.13 mN/m; (298 K) 12.1 ± 0.13 mN/m; (303 K) 11.84 ± 0.12 mN/m; (308 K) 11.7 ± 0.12 mN/m; (313 K) 11.43 ± 0.12 mN/m.

For `CCn1cc[n+](C)c1.O=S(=O)([N-]S(=O)(=O)C(F)(F)F)C(F)(F)F` + CCCCCCCCCC, the interfacial tension was determined as 12.87 ± 0.14 mN/m (293 K); 12.75 ± 0.14 mN/m (298 K); 12.64 ± 0.14 mN/m (303 K); 12.52 ± 0.14 mN/m (308 K); 12.41 ± 0.14 mN/m (313 K).

As to `CCCC[n+]1ccn(C)c1.O=S(=O)([N-]S(=O)(=O)C(F)(F)F)C(F)(F)F` + O, the interfacial tension (293 K) was found to be 13.69 ± 0.12 mN/m; the interfacial tension (298 K) was 13.2 ± 0.12 mN/m; the interfacial tension (303 K) is on record as 12.57 ± 0.12 mN/m; the interfacial tension (308 K) came out at 12.31 ± 0.12 mN/m; the interfacial tension (313 K) worked out at 11.62 ± 0.12 mN/m; the interfacial tension (318 K) amounted to 11.4 ± 0.12 mN/m. Moreover, the interfacial tension (323 K) turned out to be 11.07 ± 0.12 mN/m.

Take `CCCC[n+]1ccn(C)c1.O=S(=O)([N-]S(=O)(=O)C(F)(F)F)C(F)(F)F` + CCCCCC: the interfacial tension is given as 7.78 ± 0.17 mN/m (293 K); 7.64 ± 0.17 mN/m (298 K); 7.5 ± 0.17 mN/m (303 K); 7.37 ± 0.16 mN/m (308 K); 7.24 ± 0.16 mN/m (313 K).

Take `CCn1cc[n+](C)c1.O=S(=O)([N-]S(=O)(=O)C(F)(F)F)C(F)(F)F` + CCCCCC: the interfacial tension by setting is: (293 K) 11.36 ± 0.22 mN/m; (298 K) 11.23 ± 0.22 mN/m; (303 K) 11.12 ± 0.22 mN/m; (308 K) 10.98 ± 0.22 mN/m; (313 K) 10.82 ± 0.21 mN/m.

In the case of `CCCCCCCCn1cc[n+](C)c1.O=S(=O)([N-]S(=O)(=O)C(F)(F)F)C(F)(F)F` + CCCCCCCC, the interfacial tension runs as follows: (293 K) 3.76 ± 0.1 mN/m; (298 K) 3.69 ± 0.1 mN/m; (303 K) 3.6 ± 0.1 mN/m; (308 K) 3.49 ± 0.1 mN/m; (313 K) 3.38 ± 0.1 mN/m.

As for `CCCCn1cc[n+](C)c1.O=S(=O)([O-])C(F)(F)F` [1-butyl-3-methylimidazolium trifluoromethanesulfonate] + CCCCCCCCCC, the interfacial tension is, setting by setting: (293 K) 10.79 ± 0.13 mN/m; (298 K) 10.67 ± 0.13 mN/m; (303 K) 10.56 ± 0.13 mN/m; (308 K) 10.44 ± 0.13 mN/m; (313 K) 10.31 ± 0.13 mN/m.

Take `Cn1cc[n+](C)c1.O=S(=O)([N-]S(=O)(=O)C(F)(F)F)C(F)(F)F` [1,3-dimethylimidazolium bis((trifluoromethyl)sulfonyl)amide] + O: the interfacial tension by setting is: (298 K) 8.05 ± 0.11 mN/m; (303 K) 7.83 ± 0.11 mN/m; (308 K) 7.49 ± 0.11 mN/m; (313 K) 7.14 ± 0.11 mN/m; (318 K) 6.82 ± 0.11 mN/m; (323 K) 6.52 ± 0.11 mN/m.

As for `CCCC[n+]1ccn(C)c1.O=S(=O)([N-]S(=O)(=O)C(F)(F)F)C(F)(F)F` + CCCCCCCC, the interfacial tension is on record as 8.78 ± 0.11 mN/m (293 K); 8.6 ± 0.11 mN/m (298 K); 8.43 ± 0.11 mN/m (303 K); 8.25 ± 0.11 mN/m (308 K); 8.1 ± 0.11 mN/m (313 K).
